Values of other authors, collected in patent publication US4039519A, “Broad spectrum antibiotics and method” (Chimie & Biologie, priority 1975, dated 1977).

Settings: oral administration; cited from earlier work

For colistine, the “passage of the gastro-intestinal barrier (known)” value is given as “cannot pass the gastro-intestinal barrier”.
